# Measurements as given in ChEMBL document CHEMBL1201862, “PubChem BioAssay data set” (2004).
#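 Briefly, cells in 96-well plates were exposed to five compound concentrations for 48 h, and endpoints were estimated by linear interpolation. At the GI50, growth is halved.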 Activity calls are given as the source filed them. No stated cut-off is given here; in the data, active = GI50 up to about 1.1 µM and inactive = higher.
# Tests used:
# Test in all cases: NCI anticancer screen, dose series, 48 h
# OVCAR-3 = system: OVCAR-3
# NCI-H460 = system: NCI-H460
# UACC-62 = system: UACC-62
# HOP-62 = system: HOP-62
# A549 = system: A549
# NCI-H522 = system: NCI-H522
# RXF 393 = system: RXF 393
# NCI/ADR-RES = system: NCI/ADR-RES
# SK-OV-3 = system: SK-OV-3
# SF-539 = system: SF-539
# CCRF-CEM = system: CCRF-CEM
# 786-0 = system: 786-0
# MDA-MB-231 = system: MDA-MB-231
# K562 = system: K562
# RPMI-8226 = system: RPMI-8226
# HCC 2998 = system: HCC 2998
# MDA-N = system: MDA-N
# SR = system: SR
# MDA-MB-435 = system: MDA-MB-435
# A498 = system: A498
Compound,GI50 (OVCAR-3),GI50 (NCI-H460),GI50 (UACC-62),GI50 (HOP-62),GI50 (A549),GI50 (NCI-H522),GI50 (RXF 393),GI50 (NCI/ADR-RES),GI50 (SK-OV-3),GI50 (SF-539),GI50 (CCRF-CEM),GI50 (786-0),GI50 (MDA-MB-231),GI50 (K562),GI50 (RPMI-8226),GI50 (HCC 2998),GI50 (MDA-N),GI50 (SR),GI50 (MDA-MB-435),GI50 (A498)
CC(=O)NC1C(O)C(O)C(CO)OC1n1ncc(=O)[nH]c1=O (stereo not given),> 100 µM (inactive),> 100 µM (inactive),> 100 µM (inactive),> 100 µM (inactive),> 100 µM (inactive),> 100 µM (inactive),> 100 µM (inactive),> 100 µM (inactive),> 100 µM (inactive),> 100 µM (inactive),> 100 µM (inactive),> 100 µM (inactive),> 100 µM (inactive),> 100 µM (inactive),> 100 µM (inactive),> 100 µM (inactive),> 100 µM (inactive),> 100 µM (inactive),> 100 µM (inactive),> 100 µM (inactive)
O=C(NNC(=S)Nc1ccccc1)c1ccccc1Nc1ccccc1C(=O)NNC(=S)Nc1ccccc1,19.6 µM (inactive),20 µM (inactive),13.1 µM (inactive),21.7 µM (inactive),27.2 µM (inactive),16.5 µM (inactive),19.2 µM (inactive),87.3 µM (inactive),30.1 µM (inactive),24.1 µM (inactive),76.4 µM (inactive),13.8 µM (inactive),21.7 µM (inactive),74 µM (inactive),18.6 µM (inactive),16.9 µM (inactive),29.1 µM (inactive),43.6 µM (inactive),20.9 µM (inactive),42.8 µM (inactive)
COc1ccc(C(=O)/C=C/c2cc(O)c(O)c(F)c2F)c(OC)c1,5.48 µM (inactive),4.45 µM (inactive),15.1 µM (inactive),26.5 µM (inactive),16.1 µM (inactive),11.2 µM (inactive),18.2 µM (inactive),10.1 µM (inactive),21.5 µM (inactive),16.7 µM (inactive),3.92 µM (inactive),8 µM (inactive),18.8 µM (inactive),17.9 µM (inactive),8.83 µM (inactive),4.75 µM (inactive),12.7 µM (inactive),4.24 µM (inactive),17.9 µM (inactive),20.1 µM (inactive)
CCC1(CC)N=C(C(F)(F)F)c2cc(C(=O)C(F)(F)F)c3ccccc3c2N1,2.73 µM (inactive),4.16 µM (inactive),3.36 µM (inactive),5.19 µM (inactive),9.71 µM (inactive),3.94 µM (inactive),3.15 µM (inactive),4.14 µM (inactive),17.7 µM (inactive),17.9 µM (inactive),3.67 µM (inactive),3.87 µM (inactive),3.44 µM (inactive),3.72 µM (inactive),2.58 µM (inactive),4.39 µM (inactive),3.15 µM (inactive),2.98 µM (inactive),3.58 µM (inactive),15.6 µM (inactive)
Cn1c(=O)c2c(nc3n(C)c(=O)c4ccccc4n23)n(C)c1=O,> 100 µM (inactive),6.93 µM (inactive),28.9 µM (inactive),21 µM (inactive),9.98 µM (inactive),25.1 µM (inactive),> 61.8 µM (inactive),59.4 µM (inactive),37.8 µM (inactive),34.8 µM (inactive),13.5 µM (inactive),29.6 µM (inactive),> 100 µM (inactive),> 67 µM (inactive),20.7 µM (inactive),> 100 µM (inactive),> 100 µM (inactive),3.67 µM (inactive),> 100 µM (inactive),18.9 µM (inactive)
Cc1oc(N)c(S(=O)(=O)/C(C#N)=C/c2ccccc2[N+](=O)[O-])c1C,21.4 µM (inactive),31.1 µM (inactive),20.7 µM (inactive),31.1 µM (inactive),25.2 µM (inactive),19.1 µM (inactive),21.9 µM (inactive),27.3 µM (inactive),> 100 µM (inactive),25.5 µM (inactive),24.1 µM (inactive),30.5 µM (inactive),32.9 µM (inactive),18.6 µM (inactive),27.9 µM (inactive),32.1 µM (inactive),20.7 µM (inactive),14 µM (inactive),32.7 µM (inactive),85.5 µM (inactive)
O=C(c1c(F)c(F)c(F)c(F)c1F)N1CCN(C(=O)c2c(F)c(F)c(F)c(F)c2F)C1=S,5.08 µM (inactive),10.7 µM (inactive),4.5 µM (inactive),15.2 µM (inactive),14.4 µM (inactive),0.582 µM (active),2.62 µM (inactive),7.33 µM (inactive),5.05 µM (inactive),10.8 µM (inactive),2.79 µM (inactive),13.2 µM (inactive),6.75 µM (inactive),1.96 µM (inactive),2.43 µM (inactive),9.57 µM (inactive),2.48 µM (inactive),3.38 µM (inactive),3.3 µM (inactive),18.1 µM (inactive)
CC1=NN(c2cccc(Cl)c2)C2(C1=C/C=C/c1ccccc1)C(Cl)C(=O)N2c1nc2ccccc2s1 (stereo not given),24.7 µM (inactive),5.42 µM (inactive),31.5 µM (inactive),27.9 µM (inactive),43 µM (inactive),14.8 µM (inactive),23.1 µM (inactive),40.5 µM (inactive),29 µM (inactive),19.2 µM (inactive),8.05 µM (inactive),11.7 µM (inactive),22.3 µM (inactive),6.14 µM (inactive),4.43 µM (inactive),25.1 µM (inactive),26.8 µM (inactive),1.51 µM (inactive),24.6 µM (inactive),30.2 µM (inactive)
COc1cccc2c3ccccc3c3nc[nH]c3c12,> 100 µM (inactive),23.7 µM (inactive),22.8 µM (inactive),54.3 µM (inactive),36.2 µM (inactive),24.5 µM (inactive),17.5 µM (inactive),46.3 µM (inactive),> 62.1 µM (inactive),18.2 µM (inactive),12.4 µM (inactive),18.1 µM (inactive),25.4 µM (inactive),12.4 µM (inactive),21.9 µM (inactive),23.9 µM (inactive),32.1 µM (inactive),14.6 µM (inactive),31.6 µM (inactive),23.1 µM (inactive)
Cc1cc(N(CC(C)Br)CC(C)Br)ccc1/N=N/c1ccccc1C(=O)O (stereo not given),16.9 µM (inactive),0.454 µM (active),1.52 µM (inactive),4.71 µM (inactive),3.04 µM (inactive),3.03 µM (inactive),0.881 µM (active),15.2 µM (inactive),13.1 µM (inactive),1.45 µM (inactive),19.6 µM (inactive),2.77 µM (inactive),14.8 µM (inactive),1.03 µM (active),1.75 µM (inactive),1.15 µM (inactive),4.23 µM (inactive),2.62 µM (inactive),16.3 µM (inactive),1.67 µM (inactive)
CC1Cc2cc(O)ccc2C2[C@@H]1C1CC[C@H](O)[C@@]1(C)C[C@@H]2O[N+](=O)[O-] (stereo not given in full),9.12 µM (inactive),9.35 µM (inactive),5.46 µM (inactive),8.83 µM (inactive),11 µM (inactive),5.62 µM (inactive),2.73 µM (inactive),3.82 µM (inactive),19.6 µM (inactive),3.79 µM (inactive),5.83 µM (inactive),8.26 µM (inactive),12.1 µM (inactive),3.79 µM (inactive),5.64 µM (inactive),5.48 µM (inactive),1.96 µM (inactive),5.56 µM (inactive),2.52 µM (inactive),31.8 µM (inactive)
CC(=O)O[C@H]1C(=O)[C@@]2(C)C(C(OC(=O)c3ccccc3)[C@]3(O)C[C@H](OC(=O)C(OC(=O)CCCC(=O)NCCCN(C)C)C(NC(=O)c4ccccc4)c4ccccc4)C(C)=C1C3(C)C)C1(OC(C)=O)COC1C[C@@H]2O (stereo not given in full),< 0.01 µM (active),< 0.01 µM (active),< 0.01 µM (active),0.016 µM (active),< 0.01 µM (active),< 0.01 µM (active),0.0171 µM (active),5.02 µM (inactive),0.0141 µM (active),< 0.01 µM (active),< 0.01 µM (active),0.0134 µM (active),< 0.0125 µM (active),< 0.01 µM (active),< 0.01 µM (active),< 0.01 µM (active),< 0.01 µM (active),< 0.01 µM (active),< 0.01 µM (active),0.0607 µM (active)
Clc1ccc(COC(Cn2ccnc2)c2ccc(Cl)cc2Cl)cc1 (stereo not given) [ECONAZOLE NITRATE],11.5 µM (inactive),10.7 µM (inactive),9.86 µM (inactive),15.5 µM (inactive),9.79 µM (inactive),8.24 µM (inactive),14.1 µM (inactive),5.42 µM (inactive),19.7 µM (inactive),13.6 µM (inactive),5.87 µM (inactive),12.6 µM (inactive),12.4 µM (inactive),4.62 µM (inactive),4.22 µM (inactive),15.6 µM (inactive),11.9 µM (inactive),3.49 µM (inactive),9.68 µM (inactive),11.6 µM (inactive)
